From patent US10696707B2, “Polyene macrolide derivative” (Shionogi & Co., Ltd., priority 2014, dated 2020)
Converted amounts (≈) assume the structure as drawn. Where two headings read alike, the source gives them in different places. One block for each molecule: values may come before it.

Key:
Format in all cases: cell-based
[1] = tested on: A. fumigatus ATCC204305; assay: Antifungal activity test, MIC by broth microdilution (CLSI M38-A2); details: A. fumigatus ATCC204305, broth microdilution, 35° C., 24-48 hours, 100% inhibition
Procedure: (§1) The Minimum Inhibitory Concentration (MIC) values of the present compound against yeast and filamentous fungi were determined by broth microdilution assay according to the Clinical Laboratory Standards Institute (CLSI) guidelines outlined in documents M27-A3 and M38-A2. The medium used in the assay consisted of RPMI1640 (with glutamine, without bicarbonate) with 2% glucose and 0.165 mol/L morpholinepropanesulfonic acid (MOPS) with pH adjusted to 7.0 using 1 mol/L sodium hydroxide. The present compound was dissolved in dimethyl sulfoxide (DMSO). A series of two-fold dilutions were prepared in DMSO, and then 2 μL of the diluted compound was added to each well in 96-well sterile plates. Each inoculum was prepared by diluting a suspension of Candida spp. or a conidia suspension of Aspergillus spp. suspended in sterile saline solution, and then 200 μL was added to each well to a predetermined concentration using RPMI/MOPS (final concentration for each solution: approximately 1×10^3 cells/mL and approximately 1×10^4 CFU/mL). Plates of Candida spp. and Aspergillus spp. were incubated at 35° C. for 24-48 hours. The MIC was defined as the lowest concentration giving 100% inhibition compared to the growth control.

[2] = tested on: A. flavus ATCC204304; assay: as above; details: A. flavus ATCC204304, broth microdilution, 35° C., 24-48 hours, 100% inhibition
Procedure: as §1

[3] = tested on: C. albicans ATCC90028; assay: Antifungal activity test, MIC by broth microdilution (CLSI M27-A3); details: C. albicans ATCC90028, broth microdilution, 35° C., 24-48 hours, 100% inhibition
Procedure: as §1

[4] = tested on: red blood cells (5% RBC suspension); assay: Test Example 2-1: in vitro hemolytic activity test (upper limit 50, 80, 100 or 200 μmol/L); details: read-out: hemolysis IC50
Procedure: Nephrotoxic potentials of the compounds of the present invention except the compounds whose X is —N(R^F)—CO—X^1 and X^1 is the group represented by formula (III) and T is —N(R^a5)— were investigated by in vitro hemolytic activity test under the condition, in that, the upper limit was 50 μmol/L, 80 μmol/L, 100 μmol/L, or 200 μmol/L as the required concentration to 50% of hemolysis (IC50).
Defibrinated sterile blood was centrifuged at 700×g for 3 minutes and, and the supernatant was removed for 100% of red blood cells. After the cleaning with physiological saline, the washed blood cells was suspended in the medium (Earle's balanced salt sodium, bicarbonate, 0.1 g/L L-glutamine without phenol red), and was diluted by 5% (5% RBC suspension).
The washed blood was diluted by 5% in water for injection (solution of complete hemolysis), and was used as the indication of optical density for complete hemolysis.
The compounds of the present invention solution in DMSO (several and doubling dilutions starting from 2.5 mmol/L, 4 mmol/L, 5 mmol/L, or 10 mmol/L), DMSO as the negative control, and Amphotericin B as the positive control were used, and each 5 μL of these was added in to a well of V-form 96 well type microplate.
Finally, the maximum concentration of the compounds of the present invention solution in DMSO was 50 μmol/L, 80 μmol/L, 100 μmol/L, or 200 μmol/L by adding 245 μL of the medium or 5% RBC suspension into the well.
Two hundred fifty μL of the solution of complete hemolysis was added into another well and the microplate was incubated at 37° C. in 5% of CO2 concentration for an hour.
After the incubation, each 100 μL of supernatants in wells was collected by centrifugation of the microplate at 300×g for 5 minutes and was located on a well of flat-form 96 well type microplate. An absorbance of each supernatant was measured at wavelength of 540 nm.
Percent hemolysis was calculated by using the followed equation. The required concentration to 50% of hemolysis (IC50) was calculated based on the percent hemolysis. […] Hemolysis (%)=(CR−VM)×100÷(VL−VR) Where:
CR: Absorbance of 5% RBC suspension incubated with the compounds of the present invention solution in DMSO
VM: Absorbance of medium incubated with the compounds of the present invention solution in DMSO
VL: Absorbance of solution of complete hemolysis
VR: Absorbance of 5% RBC suspension incubated with DMSO
The “hemolysis method” in the table means any tests the upper concentration of above IC50 are 50 μmol/L, 80 μmol/L, 100 μmol/L or 200 μmol/L. The “>50”, “>80”, “>100” or “>200” in the table means above IC50 value exceeded the each upper concentration.

[5] = Aspergillus fumigatus, read-out: MIC
[6] = Aspergillus flavus, read-out: MIC
[7] = Candida albicans, read-out: MIC
[8] = hemolysis method 50 (upper concentration 50 μmol/L), 5% RBC suspension, 37° C., one hour
[9] = Erythrocyte, 1 h, hemolysis method 50 (upper concentration 50 μmol/L), 5% RBC suspension, 37° C., one hour
[10] = hemolysis method 100 (upper concentration 100 μmol/L), 5% RBC suspension, 37° C., one hour

MIC [1, 5]: 1 µg/mL (≈ 1.07 µM)
MIC [2, 6]: 1 µg/mL (≈ 1.07 µM)
MIC [3, 7]: 0.25 µg/mL (≈ 0.266 µM)
Compound: C[C@@H]1[C@H](O)[C@@H](C)/C=C/C=C/C=C/C=C/C=C/C=C/C=C/[C@H](O[C@@H]2O[C@H](C)[C@@H](O)[C@H](N)[C@@H]2O)C[C@@H]2O[C@](O)(C[C@@H](O)C[C@@H](O)[C@H](O)CC[C@@H](O)C[C@@H](O)CC(=O)O[C@H]1C)C[C@H](O)[C@H]2NC(N)=O [I-36]

MIC [1, 5]: 1 µg/mL (≈ 1.03 µM)
MIC [2, 6]: 1 µg/mL (≈ 1.03 µM)
MIC [3, 7]: 0.25 µg/mL (≈ 0.258 µM)
Compound: CONC(=O)N[C@H]1[C@@H]2C[C@@H](O[C@@H]3O[C@H](C)[C@@H](O)[C@H](N)[C@@H]3O)/C=C/C=C/C=C/C=C/C=C/C=C/C=C/[C@H](C)[C@@H](O)[C@@H](C)[C@H](C)OC(=O)C[C@H](O)C[C@H](O)CC[C@@H](O)[C@H](O)C[C@H](O)C[C@](O)(C[C@@H]1O)O2 [I-59]

MIC [1]: 1 µg/mL (≈ 0.977 µM)
MIC [2]: 1 µg/mL (≈ 0.977 µM)
MIC [3]: 0.25 µg/mL (≈ 0.244 µM)
Compound: C[C@@H]1[C@H](O)[C@@H](C)/C=C/C=C/C=C/C=C/C=C/C=C/C=C/[C@H](O[C@@H]2O[C@H](C)[C@@H](O)[C@H](N)[C@@H]2O)C[C@@H]2O[C@](O)(C[C@@H](O)C[C@@H](O)[C@H](O)CC[C@@H](O)C[C@@H](O)CC(=O)O[C@H]1C)C[C@H](O)[C@H]2NC(=O)NCCNC(=N)N [I-67]

MIC [1]: 0.5 µg/mL (≈ 0.502 µM)
MIC [2]: 0.5 µg/mL (≈ 0.502 µM)
MIC [3]: 0.25 µg/mL (≈ 0.251 µM)
Compound: C[C@@H]1[C@H](O)[C@@H](C)/C=C/C=C/C=C/C=C/C=C/C=C/C=C/[C@H](O[C@@H]2O[C@H](C)[C@@H](O)[C@H](N)[C@@H]2O)C[C@@H]2O[C@](O)(C[C@@H](O)C[C@@H](O)[C@H](O)CC[C@@H](O)C[C@@H](O)CC(=O)O[C@H]1C)C[C@H](O)[C@H]2NC(=O)NCC(N)=O [I-90]

MIC [1]: 1 µg/mL (≈ 0.988 µM)
MIC [2]: 0.5 µg/mL (≈ 0.494 µM)
MIC [3]: 0.25 µg/mL (≈ 0.247 µM)
Compound: C[C@@H]1[C@H](O)[C@@H](C)/C=C/C=C/C=C/C=C/C=C/C=C/C=C/[C@H](O[C@@H]2O[C@H](C)[C@@H](O)[C@H](N)[C@@H]2O)C[C@@H]2O[C@](O)(C[C@@H](O)C[C@@H](O)[C@H](O)CC[C@@H](O)C[C@@H](O)CC(=O)O[C@H]1C)C[C@H](O)[C@H]2NC(=O)NC[C@@H](O)CO [I-119]

MIC [1]: 1 µg/mL (≈ 0.935 µM)
MIC [2]: 0.5 µg/mL (≈ 0.468 µM)
MIC [3]: 0.5 µg/mL (≈ 0.468 µM)
Compound: C[C@@H]1[C@H](O)[C@@H](C)/C=C/C=C/C=C/C=C/C=C/C=C/C=C/[C@H](O[C@@H]2O[C@H](C)[C@@H](O)[C@H](N)[C@@H]2O)C[C@@H]2O[C@](O)(C[C@@H](O)C[C@@H](O)[C@H](O)CC[C@@H](O)C[C@@H](O)CC(=O)O[C@H]1C)C[C@H](O)[C@H]2NC(=O)NCC(=O)NC(CO)CO [I-155]

MIC [1]: 1 µg/mL (≈ 0.967 µM)
MIC [2]: 0.5 µg/mL (≈ 0.483 µM)
MIC [3]: 0.5 µg/mL (≈ 0.483 µM)
Compound: C[C@@H]1[C@H](O)[C@@H](C)/C=C/C=C/C=C/C=C/C=C/C=C/C=C/[C@H](O[C@@H]2O[C@H](C)[C@@H](O)[C@H](N)[C@@H]2O)C[C@@H]2O[C@](O)(C[C@@H](O)C[C@@H](O)[C@H](O)CC[C@@H](O)C[C@@H](O)CC(=O)O[C@H]1C)C[C@H](O)[C@H]2NC(=O)NCC(=O)NCC#N [I-157]

Compound: C[C@@H]1[C@H](O)[C@@H](C)/C=C/C=C/C=C/C=C/C=C/C=C/C=C/[C@H](O[C@@H]2O[C@H](C)[C@@H](O)[C@H](N)[C@@H]2O)C[C@@H]2O[C@](O)(C[C@@H](O)C[C@@H](O)[C@H](O)CC[C@@H](O)C[C@@H](O)CC(=O)O[C@H]1C)C[C@H](O)[C@H]2NC(=O)NC(C(=O)O)[C@H](C)O (stereo partly shown) [I-291]
IC50 [4, 8]: > 50 µM

Compound: C[C@@H]1[C@H](O)[C@@H](C)/C=C/C=C/C=C/C=C/C=C/C=C/C=C/[C@H](O[C@@H]2O[C@H](C)[C@@H](O)[C@H](N)[C@@H]2O)C[C@@H]2O[C@](O)(C[C@@H](O)C[C@@H](O)[C@H](O)CC[C@@H](O)C[C@@H](O)CC(=O)O[C@H]1C)C[C@H](O)[C@H]2NC(=O)N(O)C[C@@H](O)C(=O)O [I-295]
IC50 [4, 8]: > 50 µM

Compound: C[C@@H]1[C@H](O)[C@@H](C)/C=C/C=C/C=C/C=C/C=C/C=C/C=C/[C@H](O[C@@H]2O[C@H](C)[C@@H](O)[C@H](N)[C@@H]2O)C[C@@H]2O[C@](O)(C[C@@H](O)C[C@@H](O)[C@H](O)CC[C@@H](O)C[C@@H](O)CC(=O)O[C@H]1C)C[C@H](O)[C@H]2NC(=O)N1CC(O[C@H]2OC(CO)[C@@H](O)[C@H](O)C2O)C1 (stereo partly shown) [I-303]
IC50 [4, 9]: > 50 µM

Compound: CNC(=O)N[C@H]1[C@@H]2C[C@@H](O[C@@H]3O[C@H](C)[C@@H](O)[C@H](NCc4ccc(N(C)C)cc4)[C@@H]3O)/C=C/C=C/C=C/C=C/C=C/C=C/C=C/[C@H](C)[C@@H](O)[C@@H](C)[C@H](C)OC(=O)C[C@H](O)C[C@H](O)CC[C@@H](O)[C@H](O)C[C@H](O)C[C@](O)(C[C@@H]1O)O2 [I-314]
IC50 [4, 10]: > 80 µM

Compound: C[C@@H]1[C@H](O)[C@@H](C)/C=C/C=C/C=C/C=C/C=C/C=C/C=C/[C@H](O[C@@H]2O[C@H](C)[C@@H](O)[C@H](NC(=O)CN(C)C)[C@@H]2O)C[C@@H]2O[C@](O)(C[C@@H](O)C[C@@H](O)[C@H](O)CC[C@@H](O)C[C@@H](O)CC(=O)O[C@H]1C)C[C@H](O)[C@H]2NC(=O)NCCN(C)C [I-327]
IC50 [4, 10]: > 50 µM

Compound: C[C@@H]1[C@H](O)[C@@H](C)/C=C/C=C/C=C/C=C/C=C/C=C/C=C/[C@H](O[C@@H]2O[C@H](C)[C@@H](O)[C@H](NCc3cccnc3N)[C@@H]2O)C[C@@H]2O[C@](O)(C[C@@H](O)C[C@@H](O)[C@H](O)CC[C@@H](O)C[C@@H](O)CC(=O)O[C@H]1C)C[C@H](O)[C@H]2NC(=O)NCCN(C)C [I-328]
IC50 [4, 10]: > 50 µM

Compound: C[C@@H]1[C@H](O)[C@@H](C)/C=C/C=C/C=C/C=C/C=C/C=C/C=C/[C@H](O[C@@H]2O[C@H](C)[C@@H](O)[C@H](NC[C@@]3(O)OC[C@@H](O)[C@H](O)[C@@H]3O)[C@@H]2O)C[C@@H]2O[C@](O)(C[C@@H](O)C[C@@H](O)[C@H](O)CC[C@@H](O)C[C@@H](O)CC(=O)O[C@H]1C)C[C@H](O)[C@H]2NC(=O)NC[C@H](O)CO [I-368]
IC50 [4, 9]: > 50 µM

Compound: C[C@@H]1[C@H](O)[C@@H](C)/C=C/C=C/C=C/C=C/C=C/C=C/C=C/[C@H](O[C@@H]2O[C@H](C)[C@@H](O)[C@H](N)[C@@H]2O)C[C@@H]2O[C@](O)(C[C@@H](O)C[C@@H](O)[C@H](O)CC[C@@H](O)C[C@@H](O)CC(=O)O[C@H]1C)C[C@H](O)[C@H]2c1nc(-c2ccc(N(C)C)cc2)no1 [I-390]
IC50 ([4]; Erythrocyte, 1 h): > 50 µM

Compound: C[C@@H]1[C@H](O)[C@@H](C)/C=C/C=C/C=C/C=C/C=C/C=C/C=C/[C@H](O[C@@H]2O[C@H](C)[C@@H](O)[C@H](N)[C@@H]2O)C[C@@H]2O[C@](O)(C[C@@H](O)C[C@@H](O)[C@H](O)CC[C@@H](O)C[C@@H](O)CC(=O)O[C@H]1C)C[C@H](O)[C@H]2c1nc(-c2ccccc2)no1 [I-391]
IC50 [4, 9]: > 50 µM

Compound: C[C@@H]1[C@H](O)[C@@H](C)/C=C/C=C/C=C/C=C/C=C/C=C/C=C/[C@H](O[C@@H]2O[C@H](C)[C@@H](O)[C@H](N)[C@@H]2O)C[C@@H]2O[C@](O)(C[C@@H](O)C[C@@H](O)[C@H](O)CC[C@@H](O)C[C@@H](O)CC(=O)O[C@H]1C)C[C@H](O)[C@H]2c1nc(-c2ccncc2)no1 [I-392]
IC50 [4, 9]: > 50 µM
